Data: patent US20100184758A1, “BETA CARBOLINE DERIVATIVES AS ANTIDIABETIC COMPOUNDS” (priority 2007, published 2010)

Key:
Type in all cases: in vivo, mouse
[1] = tested on: C57BL/6N mice; experiment: Glucose tolerance test in mice; conditions: wild type mice containing intact, functional SSTR3
Description: (§1) Male C57BL/6N mice (7-12 weeks of age) are housed 10 per cage and given access to normal diet rodent chow and water ad libitum. Mice are randomly assigned to treatment groups and fasted 4 to 6 h. Baseline blood glucose concentrations are determined by glucometer from tail nick blood. Animals are then treated orally with vehicle (0.25% methylcellulose) or test compound. Blood glucose concentration is measured at a set time point after treatment (t=0 min) and mice are then challenged with dextrose intraperitoneally- (2-3 g/kg) or orally (3-5 g/kg). One group of vehicle-treated mice is challenged with saline as a negative control. Blood glucose levels are determined from tail bleeds taken at 20, 40, 60 minutes after dextrose challenge. […] Percent inhibition values for each treatment are generated from the AUC data normalized to the saline-challenged controls. A similar assay may be performed in rats.

[2] = tested on: SSTR3 knock out mice; experiment: Glucose tolerance test in SSTR3 gene knockout mice; conditions: oral dose in the range of 1 to 30 mg/kg po
Description: as §1
In order to assess the selectivity of blockade of SSTR3, compounds were evaluated in the oral glucose tolerance test (oGTT) described above in mice lacking the gene for a functional SSTR3.

[3] = tested on: C57BL/6N mice; experiment: Oral glucose tolerance test in mice, SSTR3 antagonist combined with DPP-4 inhibitor; conditions: suboptimal doses 0.001 to 0.1 mg/kg po with low doses of a DPP-4 inhibitor such as sitagliptin and des-fluoro-sitagliptin
Description: Compounds of the present invention were combined with dipeptidyl peptidase-IV (DPP-4) inhibitors in oral glucose tolerance test (oGTT) described above. Male C57BL/6N mice (7-12 weeks of age) were housed 10 per cage and given access to normal rodent chow and water ad libitum. Mice were randomly assigned to treatment groups and fasted 4 to 6 h. Baseline blood glucose concentrations were determined by glucometer from tail nick blood. […] Blood glucose concentration was measured at a set time point after treatment (t=0 min) and mice were then challenged with dextrose intraperitoneally (2-3 g/kg) or orally (3-5 g/kg). One group of vehicle-treated mice was challenged with saline as a negative control. Blood glucose levels were determined from tail bleeds taken at 20, 40, 60 min after dextrose challenge. […] Percent inhibition values for each treatment were generated from the AUC data normalized to the saline-challenged controls.

Cc1nc(C2N[C@@H](c3nc(-c4ccc(F)cc4)c[nH]3)Cc3c2[nH]c2ccccc32)no1 (stereo partly drawn) [Example 17, (3R)-3-[4-(4-Fluorophenyl)-1H-imidazol-2-yl]-1-(5-methyl-1,2,4-oxadiazol-3-yl)-2,3,4,9-tetrahydro-1H-β-carboline]
inhibition of glucose excursion in oGTT [1]: inhibit glucose excursion
inhibition of glucose excursion in oGTT [2]: failed to significantly inhibit glucose excursion

CCOCC1(c2cnn(C)c2)N[C@@H](c2nc(-c3ccc(F)cc3)c[nH]2)Cc2c1[nH]c1ccccc21 (stereo partly drawn) [Example 20, (3R)-[4-(4-Fluorophenyl)-1H-imidazol-2-yl]-1-(ethoxymethyl)-1-(1-methyl-1H-pyrazol-4-yl)-2,3,4,9-tetrahydro-1H-β-carboline]
activity in oGTT in combination with a DPP-4 inhibitor versus alone [3]: more active in combination with low doses of a DPP-4 inhibitor
inhibition of glucose excursion in oGTT [1]: inhibit glucose excursion
inhibition of glucose excursion in oGTT [2]: failed to significantly inhibit glucose excursion

Cc1nc(C2(c3cnn(C)c3)N[C@@H](c3nc(-c4ccc(F)cc4)c[nH]3)Cc3c2[nH]c2ccccc32)no1 (stereo partly drawn) [Example 21, (3R)-[4-(4-Fluorophenyl)-1H-imidazol-2-yl]-1-(5-methyl-1,2,4-oxadiazol-3-yl)-1-(1-methyl-1H-pyrazol-4-yl)-2,3,4,9-tetrahydro-1H-β-carboline]
inhibition of glucose excursion in oGTT [1]: inhibit glucose excursion
